SMILES strings stand for the structures.

This assay addresses PCSK9 (Homo sapiens, UniProt Q8NBP7). The assay can be described thus: PCSK9-LDLR in vitro Binding Assay (solid phase, ELISA readout). The following applies: for inhibition at 10 µM: test compound concentration 10 μM; for inhibition at 100 µM: test compound concentration 100 μM. The protocol:
The PCSK9-LDLR in vitro Binding Assay is a quantitative solid phase binding assay between PCSK9 and recombinant LDLR. Plates were pre-coated with a recombinant LDLR-AB domain, which binds PCSK9. Test compound at different concentration was added to the PCSK9 and added to LDLR immobilized on the wells. The amount of bound PCSK9 is measured by binding it with biotinylated anti-His-tag monoclonal antibody, followed by binding with horseradish peroxidase conjugated streptavidin substrate. The color was quantified by ELISA reader at […] which reflects the relative amount of PCSK9 that binds to LDLR in presence and absence of the inhibitor.
(In general: An ELISA detects its analyte on a solid surface through an enzyme-linked reagent.)

PCSK9, sequence (Q8NBP7 153-692): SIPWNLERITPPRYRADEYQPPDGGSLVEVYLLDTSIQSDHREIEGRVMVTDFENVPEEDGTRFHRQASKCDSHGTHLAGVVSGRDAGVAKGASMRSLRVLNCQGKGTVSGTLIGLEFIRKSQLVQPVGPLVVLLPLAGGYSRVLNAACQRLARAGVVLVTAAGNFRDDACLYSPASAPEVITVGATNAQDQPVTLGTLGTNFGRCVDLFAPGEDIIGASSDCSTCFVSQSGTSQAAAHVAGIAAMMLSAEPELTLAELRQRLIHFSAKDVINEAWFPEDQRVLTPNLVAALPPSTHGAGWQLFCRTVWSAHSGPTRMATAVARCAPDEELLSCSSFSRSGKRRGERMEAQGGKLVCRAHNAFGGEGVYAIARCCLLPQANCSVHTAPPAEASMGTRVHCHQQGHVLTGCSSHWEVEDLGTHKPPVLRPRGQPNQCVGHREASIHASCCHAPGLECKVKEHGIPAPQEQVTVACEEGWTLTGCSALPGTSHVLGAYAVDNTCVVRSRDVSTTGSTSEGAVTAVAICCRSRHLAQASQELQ
PCSK9, sequence (Q8NBP7 31-152 partner limits assumed): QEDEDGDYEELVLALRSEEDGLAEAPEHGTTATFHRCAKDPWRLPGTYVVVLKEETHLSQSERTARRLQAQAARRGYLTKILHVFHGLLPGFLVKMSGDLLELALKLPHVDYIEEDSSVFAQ

Turning to `O=C(COc1ccc(C(Cc2ccccc2)=NOCc2ccc(C(F)(F)F)cc2)cc1)N1CCOCC1` [Example 4, 1-Morpholino-2-(4-(2-phenyl-1-(((4-(trifluoromethyl)benzyl)oxy)imino)ethyl)phenoxy)ethanone], the inhibition at 10 µM amounted to 31% and the inhibition at 100 µM is 62%.
The corresponding values for `CCC(=NOCc1nc(-c2ccccc2)oc1C)c1ccc(OCC(=O)N2CCN(C)CC2)cc1` [Example 50, 2-(4-(1-(((5-methyl-2-phenyloxazol-4-yl)methoxy)imino)propyl)phenoxy)-1-(4-methylpiperazin-1-yl)ethanone] are 22% and 42%.
In turn, `COc1ccc(CON=C(Cc2ccccc2)c2ccc(OCC(=O)N3CCCCC3)c(C)c2)cc1` [Example 40, 2-(4-(1-(((4-methoxybenzyl)oxy)imino)-2-phenylethyl)-2-methylphenoxy)-1-(piperidin-1-yl)ethanone] returned an inhibition at 10 µM of 24% and an inhibition at 100 µM of 50%.
Taken in the same sequence, the figures for `O=C(COc1ccc(C(Cc2ccccc2)=NOCc2ccc(OC(F)(F)F)cc2)cc1)N1CCOCC1` [Example 35, 1-morpholino-2-(4-(2-phenyl-1-(((4-(trifluoromethoxy)benzyl)oxy)imino)ethyl)phenoxy)ethanone] were 26% and 42%.
`O=C(COc1ccc(C(Cc2ccccc2)=NOCc2ccc(C(F)(F)F)cc2)cc1)NN1CCOCC1` [Example 9, N-Morpholino-2-(4-(2-phenyl-1-(((4-(trifluoromethyl)benzyl)oxy)imino)ethyl)phenoxy)acetamide]: the inhibition at 10 µM turned out to be 53% and the inhibition at 100 µM was determined as 33%.
In turn, `Cc1ccnc(NC(=O)COc2ccc3c(c2)CCCC3=NOCc2ccc(C(F)(F)F)cc2)n1` [Example 60, N-(4-methylpyrimidin-2-yl)-2-((5-(((4-(trifluoromethyl)benzyl)oxy)imino)-5,6,7,8-tetrahydronaphthalen-2-yl)oxy)acetamide] returned an inhibition at 10 µM of 61% and an inhibition at 100 µM of 91%.
`O=C(COc1ccc2c(c1)CCCC2=NOCc1ccc(C(F)(F)F)cc1)NN1CCCCC1` [Example 58, N-(piperidin-1-yl)-2-((5-(((4-(trifluoromethyl)benzyl)oxy)imino)-5,6,7,8-tetrahydronaphthalen-2-yl)oxy)acetamide] came in with an inhibition at 10 µM of 50% and an inhibition at 100 µM of 53%.
`CCC(=NOCc1ccc(C(F)(F)F)cc1)c1ccc(OCC(=O)N(CCO)c2ccccc2)cc1` [Example 20, N-(2-Hydroxyethyl)-N-phenyl-2-(4-(1-(((4-(trifluoromethyl)benzyl)oxy)imino)propyl)phenoxy)acetamide] displayed an inhibition at 10 µM of 20% and an inhibition at 100 µM of 54%.
Molecule `CN1CCN(C(=O)COc2ccc3c(c2)CCCC3=NOCc2ccc(C(F)(F)F)cc2)CC1` [Example 56, 1-(4-methylpiperazin-1-yl)-2-((5-(((4-(trifluoromethyl)benzyl)oxy)imino)-5,6,7,8-tetrahydronaphthalen-2-yl)oxy)ethanone] displayed an inhibition at 10 µM of 63% and an inhibition at 100 µM of 66%.
On to `CC(=NOCc1ccc(C(F)(F)F)cc1)c1ccc(OCC(=O)N2CCOCC2)cc1` [Example 11, 1-Morpholino-2-(4-(1-(((4-(trifluoromethyl)benzyl)oxy)imino)ethyl)phenoxy)ethanone], for which the inhibition at 10 µM is 26% and the inhibition at 100 µM came out at 57%.
In the case of `O=C(COc1ccc(C(Cc2ccccc2)=NOCc2ccccc2)cc1)N1CCOCC1` [Example 25, 2-(4-(1-((Benzyloxy)imino)-2-phenylethyl)phenoxy)-1-morpholinoethanone], testing at 10 µM gave an inhibition of 27% and the inhibition at 100 µM worked out at 40%.
In the case of `[C-]#[N+]c1ccccc1NC(=O)COc1ccc2c(c1)CCCC2=NOCc1ccc(C(F)(F)F)cc1` [Example 63, N-(2-isocyanophenyl)-2-((5-(((4-(trifluoromethyl)benzyl)oxy)imino)-5,6,7,8-tetrahydronaphthalen-2-yl)oxy)acetamide], testing at 10 µM gave an inhibition of 48% and the inhibition at 100 µM was determined as 58%.
`CCC(=NOCc1ccc(C(F)(F)F)cc1)c1ccc(OCC(=O)N2CCCCC2)cc1` [Example 15, 1-(Piperidin-1-yl)-2-(4-(1-(((4-(trifluoromethyl)benzyl)oxy)imino)propyl)phenoxy)ethanone]: the inhibition at 10 µM was 32% and the inhibition at 100 µM amounted to 64%.
The corresponding values for `O=C(COc1ccc2c(c1)CCCC2=NOCc1ccc(C(F)(F)F)cc1)NN1CCOCC1` [Example 57, N-morpholino-2-((5-(((4-(trifluoromethyl)benzyl)oxy)imino)-5,6,7,8-tetrahydronaphthalen-2-yl)oxy)acetamide] are 50% and 59%.
With `Cc1cc(C(Cc2ccccc2)=NOCc2ccc(OC(F)(F)F)cc2)ccc1OCC(=O)N1CCOCC1` [Example 34, 2-(2-methyl-4-(2-phenyl-1-(((4-(trifluoromethoxy)benzyl)oxy)imino)ethyl)phenoxy)-1-morpholinoethanone], the inhibition at 10 µM came out at 25% and the inhibition at 100 µM was found to be 46%.
In turn, `CC(C)(C)OC(=O)N1CCC(ONC(=O)COc2ccc(C(Cc3ccccc3)=NOCc3ccc(C(F)(F)F)cc3)cc2)CC1` [Example 8, tert-Butyl 4-((2-(4-(2-phenyl-1-(((4-(trifluoromethyl)benzyl)oxy)imino)ethyl)phenoxy)acetamido)oxy)piperidine-1-carboxylate] yielded an inhibition at 10 µM of 50% and an inhibition at 100 µM of 52%.
For `CCC(=NOCc1ccc(C(F)(F)F)cc1)c1ccc(OCC(=O)Nc2cc(C)nn2C)cc1` [Example 22, N-(1,3-Dimethyl-1H-pyrazol-5-yl)-2-(4-(1-(((4-(trifluoromethyl)benzyl)oxy)imino)propyl)phenoxy)acetamide], the inhibition at 10 µM amounted to 35% and testing at 100 µM gave an inhibition of 60%.
The corresponding values for `CC(C)(C)OC(=O)N1CCC(ONC(=O)COc2ccc3c(c2)CCCC3=NOCc2ccc(C(F)(F)F)cc2)CC1` [Example 62, tert-butyl 4-((2-((5-(((4-(trifluoromethyl)benzyl)oxy)imino)-5,6,7,8-tetrahydronaphthalen-2-yl)oxy)acetamido)oxy)piperidine-1-carboxylate] are 57% and 73%.
For `Cc1cc(C(Cc2ccccc2)=NOCc2ccc(C(F)(F)F)cc2)ccc1OCC(=O)N1CCOCC1` [Example 1, 2-(2-Methyl-4-(2-phenyl-1-(((4-(trifluoromethyl)benzyl)oxy)imino)ethyl)phenoxy)-1-morpholinoethanone], the inhibition at 10 µM is 50% and the inhibition at 100 µM stood at 51%.
Consider `CCC(=NOCCn1ccc2ccccc21)c1ccc(OCC(=O)N2CCN(C)CC2)cc1` [Example 46, 2-(4-(1-((2-(1H-indol-1-yl)ethoxy)imino)propyl)phenoxy)-1-(4-methylpiperazin-1-yl)ethanone], for which the inhibition at 10 µM was 27% and the inhibition at 100 µM is 59%.
The corresponding values for `CCC(=NOCc1ccc(C(F)(F)F)cc1)c1ccc(OCC(=O)N2CCOCC2)cc1` [Example 13, 1-Morpholino-2-(4-(1-(((4-(trifluoromethyl)benzyl)oxy)imino)propyl)phenoxy)ethanone] are 52% and 54%.
In the case of `COc1ccc(CON=C(Cc2ccccc2)c2ccc(OCC(=O)N3CCOCC3)c(C)c2)cc1` [Example 36, 2-(4-(1-(((4-methoxybenzyl)oxy)imino)-2-phenylethyl)-2-methylphenoxy)-1-morpholinoethanone], the inhibition at 10 µM came out at 22% and at 100 µM the inhibition was 40%.
`CN1CCN(C(=O)COc2ccc(C(Cc3ccccc3)=NOCc3ccc(C(F)(F)F)cc3)cc2)CC1` [Example 6, 1-(4-Methylpiperazin-1-yl)-2-(4-(2-phenyl-1-(((4-(trifluoromethyl)benzyl)oxy)imino)ethyl)phenoxy)ethanone] displayed an inhibition at 10 µM of 49%.
For `O=C(COc1ccc2c(c1)CCCC2=NOCc1ccc(C(F)(F)F)cc1)Nc1nc2cc(Cl)ccc2o1` [Example 59, N-(5-chlorobenzo[d]oxazol-2-yl)-2-((5-(((4-(trifluoromethyl)benzyl)oxy)imino)-5,6,7,8-tetrahydronaphthalen-2-yl)oxy)acetamide], 10 µM produced 49% inhibition and the inhibition at 100 µM was found to be 79%.
The corresponding values for `Cc1ccc(CON=C(Cc2ccccc2)c2ccc(OCC(=O)N3CCOCC3)c(C)c2)cc1` [Example 26, 2-(2-Methyl-4-(1-(((4-methylbenzyl)oxy)imino)-2-phenylethyl)phenoxy)-1-morpholinoethanone] are 32% and 44%.
Taken in the same sequence, the figures for `O=C(COc1ccc2c(c1)CCCC2=NOCc1ccc(C(F)(F)F)cc1)N1CCCCC1` [Example 54, 1-(piperidin-1-yl)-2-((5-(((4-(trifluoromethyl)benzyl)oxy)imino)-5,6,7,8-tetrahydronaphthalen-2-yl)oxy)ethanone] were 40% and 62%.
The molecule `Cc1cc(C(Cc2ccccc2)=NOCc2ccc(C(F)(F)F)cc2)ccc1OCC(=O)NCC(=O)N1CCOCC1` [Example 3, 2-(2-Methyl-4-(2-phenyl-1-(((4-(trifluoromethyl)benzyl)oxy)imino)ethyl)phenoxy)-N-(2-morpholino-2-oxoethyl)acetamide] showed an inhibition at 10 µM of 32% and an inhibition at 100 µM of 38%.
Taken in the same sequence, the figures for `Cc1cc(C(Cc2ccsc2)=NOCc2ccc(C(F)(F)F)cc2)ccc1OCC(=O)N1CCOCC1` [Example 10, 2-(2-Methyl-4-(2-(thiophen-3-yl)-1-(((4-(trifluoromethyl)benzyl)oxy)imino)ethyl)phenoxy)-1-morpholinoethanone] were 21% and 53%.

In general, inhibition refers to the relative decrease from the control value, in per cent.

These data come from patent US20150051144A1, “COMPOUNDS FOR THE TREATMENT OF DYSLIPIDEMIA AND OTHER DISEASES” (Cadila Healthcare Limited, priority 2012, published 2015).
